Experimental findings from ChEMBL document CHEMBL3046422, “Insecticidal activity of imidacloprid derivatives with an alkoxy group at the C5 position of the pyridine ring” (2006) are described below.

Where only a bound is given, the exact number is not on record here.

Format in all cases: functional
Test [1] concerns Periplaneta americana. Description: Insecticidal activity against adult male Periplaneta americana (American cockroach) dosed through injection into abdomen assessed as mortality measured 24 hr post dose pre-treated with 50 ug metabolic inhibitor PB and 50 ug NIA16388 1 hr before compound injection.
Test [2] concerns Periplaneta americana. Description: Insecticidal activity against adult male Periplaneta americana (American cockroach) dosed through injection into abdomen assessed as mortality measured 24 hr post dose pre-treated with 50 ug metabolic inhibitor PB 1 hr before compound injection.
Test [3] relates to Periplaneta americana. Description: Insecticidal activity against adult male Periplaneta americana (American cockroach) dosed through injection into abdomen assessed as mortality measured 24 hr post dose.

`O=[N+]([O-])/N=C1\NCCN1Cc1cnc(Cl)c(Cl)c1` [5-CHLOROIMIDACLOPRID]: the results for the “log(1/MLD)” value in test [1], in test [2] and in test [3] were 9.05, 9.05 and 8.35, respectively.

Consider `CCCCCOc1cc(CN2CCN/C2=N\[N+](=O)[O-])cnc1Cl`, for which the “log(1/MLD)” value in test [1] worked out at 6.46; in test [2], 6.46; in test [3], 5.86.

Turning to `CC(C)Oc1cc(CN2CCN/C2=N\[N+](=O)[O-])cnc1Cl`, the “log(1/MLD)” value in test [1] turned out to be 8.1; in test [2], 7.89; in test [3], 6.99.

On to `O=[N+]([O-])/N=C1\NCCN1Cc1ccc(Cl)nc1` [IMIDACLOPRID], for which the “log(1/MLD)” value worked out at 10.15 in test [1], 10.15 in test [2] and 8.96 in test [3].

With `COc1cc(CN2CCN/C2=N\[N+](=O)[O-])cnc1Cl`, the “log(1/MLD)” value in test [1] is 8.74; in test [2] it was 8.74; in test [3], 7.43.

As for `CCCOc1cc(CN2CCN/C2=N\[N+](=O)[O-])cnc1Cl`, the “log(1/MLD)” value is listed as 6.89 in test [1], 6.89 in test [2] and less than 6.86 in test [3].

`O=[N+]([O-])/N=C1/NCCN1Cc1cnc(Cl)c(F)c1` [5-FLUOROIMIDACLOPRID]: the “log(1/MLD)” value is on record as 9.91 in test [1], 9.91 in test [2] and 8.82 in test [3].

Consider `CCOc1cc(CN2CCN/C2=N\[N+](=O)[O-])cnc1Cl`, for which the “log(1/MLD)” value in test [1] is reported as 8.08; in test [2], 7.87; in test [3] it was 7.07.

In the case of `CCCCOc1cc(CN2CCN/C2=N\[N+](=O)[O-])cnc1Cl`, the “log(1/MLD)” value in test [1] is 8.12; in test [2], 8.12; in test [3], 7.12.
